The text below walks through data of ChEMBL document CHEMBL5291721, “A preclinical secondary pharmacology resource illuminates target-adverse drug reaction associations of marketed drugs” (Nat Commun, 2023).

The target of test [1] is T1, Alpha-2A adrenergic receptor (Homo sapiens, UniProt P08913).
T1 sequence (P08913 whole entry): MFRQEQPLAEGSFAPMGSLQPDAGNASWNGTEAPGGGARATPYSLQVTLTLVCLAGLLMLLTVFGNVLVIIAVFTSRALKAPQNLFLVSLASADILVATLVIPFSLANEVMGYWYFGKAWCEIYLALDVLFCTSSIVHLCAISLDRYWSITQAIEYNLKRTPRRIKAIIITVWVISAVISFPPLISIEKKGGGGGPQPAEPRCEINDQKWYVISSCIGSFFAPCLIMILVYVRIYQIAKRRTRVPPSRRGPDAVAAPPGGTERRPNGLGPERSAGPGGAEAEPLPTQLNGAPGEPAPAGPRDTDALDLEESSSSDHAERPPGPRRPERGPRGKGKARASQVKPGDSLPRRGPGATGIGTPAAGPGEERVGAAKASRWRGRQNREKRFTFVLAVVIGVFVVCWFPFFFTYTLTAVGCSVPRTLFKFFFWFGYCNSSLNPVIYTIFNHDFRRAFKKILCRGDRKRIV
It is filed as functional, cell-based.

For test [2], the target named is Gamma-aminobutyric acid receptor subunit alpha-1 (Rattus norvegicus, UniProt P62813). Format: functional.
Chain of Gamma-aminobutyric acid receptor subunit alpha-1 (P62813 whole entry): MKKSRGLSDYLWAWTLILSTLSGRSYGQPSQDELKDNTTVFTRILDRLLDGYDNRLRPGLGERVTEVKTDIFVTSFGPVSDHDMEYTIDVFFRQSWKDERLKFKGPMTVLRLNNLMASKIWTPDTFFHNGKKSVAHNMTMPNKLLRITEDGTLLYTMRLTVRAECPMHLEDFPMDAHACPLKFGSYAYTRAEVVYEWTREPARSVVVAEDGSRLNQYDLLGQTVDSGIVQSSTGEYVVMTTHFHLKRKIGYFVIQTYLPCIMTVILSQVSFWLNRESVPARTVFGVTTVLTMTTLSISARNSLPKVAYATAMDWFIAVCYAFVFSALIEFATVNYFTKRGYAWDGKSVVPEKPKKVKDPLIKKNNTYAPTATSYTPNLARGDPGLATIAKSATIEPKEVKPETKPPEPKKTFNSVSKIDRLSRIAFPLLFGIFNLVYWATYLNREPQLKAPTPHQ
The target in test [3] is T2, 5-hydroxytryptamine receptor 1A (Homo sapiens, UniProt P08908).
T2 sequence (P08908 whole entry): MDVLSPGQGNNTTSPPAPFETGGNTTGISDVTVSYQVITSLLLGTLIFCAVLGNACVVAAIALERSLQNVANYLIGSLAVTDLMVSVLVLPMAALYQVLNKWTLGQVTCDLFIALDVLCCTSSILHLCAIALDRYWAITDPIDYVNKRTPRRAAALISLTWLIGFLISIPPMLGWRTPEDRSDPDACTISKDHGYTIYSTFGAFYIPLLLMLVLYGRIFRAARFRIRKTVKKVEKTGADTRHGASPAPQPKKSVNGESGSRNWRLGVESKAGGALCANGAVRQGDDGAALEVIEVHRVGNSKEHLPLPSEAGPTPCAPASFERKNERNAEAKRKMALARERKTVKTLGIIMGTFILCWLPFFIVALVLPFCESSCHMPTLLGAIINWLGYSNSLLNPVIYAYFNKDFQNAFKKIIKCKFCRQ
It is filed as functional, cell-based.

Test [4] deals with Glutamate receptor ionotropic, NMDA 1 (Rattus norvegicus, UniProt P35439).
Test [5] addresses Sodium-dependent dopamine transporter (Homo sapiens, UniProt Q01959).
Test [6] has as its target Neuronal acetylcholine receptor subunit alpha-4 (Homo sapiens, UniProt P43681).
Test [7] addresses D(3) dopamine receptor (Homo sapiens, UniProt P35462).
For test [8], the target named is T3, Muscarinic acetylcholine receptor M2 (Homo sapiens, UniProt P08172).
T3 sequence (P08172 whole entry): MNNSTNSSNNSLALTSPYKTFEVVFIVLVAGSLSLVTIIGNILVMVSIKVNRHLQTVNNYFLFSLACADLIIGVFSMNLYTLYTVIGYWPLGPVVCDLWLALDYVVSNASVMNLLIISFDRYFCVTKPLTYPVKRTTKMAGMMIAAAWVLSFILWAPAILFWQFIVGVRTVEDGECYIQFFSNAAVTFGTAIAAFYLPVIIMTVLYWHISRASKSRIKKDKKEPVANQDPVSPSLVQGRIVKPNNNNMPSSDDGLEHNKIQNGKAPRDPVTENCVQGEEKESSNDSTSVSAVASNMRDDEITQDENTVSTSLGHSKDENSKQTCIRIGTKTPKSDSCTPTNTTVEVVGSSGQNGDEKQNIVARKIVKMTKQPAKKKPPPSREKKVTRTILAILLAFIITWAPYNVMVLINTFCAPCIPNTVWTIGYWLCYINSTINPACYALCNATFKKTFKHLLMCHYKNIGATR
Format: functional, cell-based.

Test [9] deals with Melanocortin receptor 3 (Homo sapiens, UniProt P41968).
Chain of Melanocortin receptor 3 (P41968 whole entry): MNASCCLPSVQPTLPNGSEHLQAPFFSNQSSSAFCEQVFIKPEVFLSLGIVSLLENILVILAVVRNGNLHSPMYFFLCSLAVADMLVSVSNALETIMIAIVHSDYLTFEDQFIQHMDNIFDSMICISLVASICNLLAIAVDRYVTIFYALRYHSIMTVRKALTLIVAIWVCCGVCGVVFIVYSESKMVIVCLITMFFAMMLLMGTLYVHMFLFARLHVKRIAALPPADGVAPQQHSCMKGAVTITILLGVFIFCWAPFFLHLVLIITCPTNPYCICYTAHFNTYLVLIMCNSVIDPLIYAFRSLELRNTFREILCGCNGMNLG
The target in test [10] is Growth hormone secretagogue receptor type 1 (Homo sapiens, UniProt Q92847).
Chain of Growth hormone secretagogue receptor type 1 (Q92847 whole entry): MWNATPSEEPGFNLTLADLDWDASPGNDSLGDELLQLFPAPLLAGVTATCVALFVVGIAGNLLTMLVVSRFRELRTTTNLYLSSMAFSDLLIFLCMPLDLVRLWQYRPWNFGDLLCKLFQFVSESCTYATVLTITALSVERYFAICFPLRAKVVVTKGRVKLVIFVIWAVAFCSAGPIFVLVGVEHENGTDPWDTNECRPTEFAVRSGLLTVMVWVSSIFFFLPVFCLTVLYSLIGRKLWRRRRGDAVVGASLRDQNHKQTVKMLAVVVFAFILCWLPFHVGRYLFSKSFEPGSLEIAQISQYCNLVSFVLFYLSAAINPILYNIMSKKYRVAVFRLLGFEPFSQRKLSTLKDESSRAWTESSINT
Test [11] concerns the target T4, Adenosine receptor A3 (Homo sapiens, UniProt P0DMS8).
T4 sequence (P0DMS8 whole entry): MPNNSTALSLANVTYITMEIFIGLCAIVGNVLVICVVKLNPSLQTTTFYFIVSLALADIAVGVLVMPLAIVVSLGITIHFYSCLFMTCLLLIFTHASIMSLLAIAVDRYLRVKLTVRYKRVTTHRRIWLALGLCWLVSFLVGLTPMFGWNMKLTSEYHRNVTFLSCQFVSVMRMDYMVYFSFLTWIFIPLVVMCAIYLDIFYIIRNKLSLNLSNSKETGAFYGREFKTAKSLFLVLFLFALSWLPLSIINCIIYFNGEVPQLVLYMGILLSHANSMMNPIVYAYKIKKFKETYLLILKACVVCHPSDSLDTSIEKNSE

Test [12] addresses Adenosine receptor A2a (Homo sapiens, UniProt P29274).
In test [13] the target is T5, Type-1 angiotensin II receptor (Homo sapiens, UniProt P30556).
T5 sequence (P30556 whole entry): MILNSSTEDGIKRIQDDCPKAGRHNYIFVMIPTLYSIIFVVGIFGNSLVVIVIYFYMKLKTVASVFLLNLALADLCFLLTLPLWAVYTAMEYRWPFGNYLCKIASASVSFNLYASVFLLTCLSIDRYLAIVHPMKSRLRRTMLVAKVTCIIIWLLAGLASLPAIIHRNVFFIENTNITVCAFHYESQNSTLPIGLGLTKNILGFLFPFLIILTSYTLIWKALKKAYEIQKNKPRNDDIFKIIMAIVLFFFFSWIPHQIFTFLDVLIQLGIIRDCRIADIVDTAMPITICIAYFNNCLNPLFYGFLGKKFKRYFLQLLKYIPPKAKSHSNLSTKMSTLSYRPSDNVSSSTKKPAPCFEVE
Note: assay procedure not described here.

Chain of D(3) dopamine receptor (P35462 whole entry): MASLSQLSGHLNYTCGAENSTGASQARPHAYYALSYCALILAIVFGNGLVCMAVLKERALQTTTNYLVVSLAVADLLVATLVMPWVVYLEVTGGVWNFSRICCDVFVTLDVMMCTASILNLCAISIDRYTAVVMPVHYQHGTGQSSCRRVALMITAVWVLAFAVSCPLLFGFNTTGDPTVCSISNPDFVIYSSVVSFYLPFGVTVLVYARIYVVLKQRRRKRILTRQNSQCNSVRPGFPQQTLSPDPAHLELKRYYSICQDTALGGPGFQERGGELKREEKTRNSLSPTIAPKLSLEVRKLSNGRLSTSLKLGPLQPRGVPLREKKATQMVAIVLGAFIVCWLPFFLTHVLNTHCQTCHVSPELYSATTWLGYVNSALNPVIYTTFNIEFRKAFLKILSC
Chain of Adenosine receptor A2a (P29274 whole entry): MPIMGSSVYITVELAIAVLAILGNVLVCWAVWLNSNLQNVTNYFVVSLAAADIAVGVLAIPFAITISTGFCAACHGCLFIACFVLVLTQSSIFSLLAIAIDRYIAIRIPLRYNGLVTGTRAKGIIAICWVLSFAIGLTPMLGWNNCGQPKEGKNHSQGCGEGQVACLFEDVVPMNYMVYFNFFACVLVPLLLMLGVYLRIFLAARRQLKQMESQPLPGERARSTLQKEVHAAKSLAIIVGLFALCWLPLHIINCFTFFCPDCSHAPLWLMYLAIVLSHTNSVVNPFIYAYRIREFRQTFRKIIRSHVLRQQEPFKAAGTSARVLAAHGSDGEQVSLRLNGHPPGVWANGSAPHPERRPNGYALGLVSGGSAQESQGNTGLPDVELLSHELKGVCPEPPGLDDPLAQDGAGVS
Chain of Neuronal acetylcholine receptor subunit alpha-4 (P43681 whole entry): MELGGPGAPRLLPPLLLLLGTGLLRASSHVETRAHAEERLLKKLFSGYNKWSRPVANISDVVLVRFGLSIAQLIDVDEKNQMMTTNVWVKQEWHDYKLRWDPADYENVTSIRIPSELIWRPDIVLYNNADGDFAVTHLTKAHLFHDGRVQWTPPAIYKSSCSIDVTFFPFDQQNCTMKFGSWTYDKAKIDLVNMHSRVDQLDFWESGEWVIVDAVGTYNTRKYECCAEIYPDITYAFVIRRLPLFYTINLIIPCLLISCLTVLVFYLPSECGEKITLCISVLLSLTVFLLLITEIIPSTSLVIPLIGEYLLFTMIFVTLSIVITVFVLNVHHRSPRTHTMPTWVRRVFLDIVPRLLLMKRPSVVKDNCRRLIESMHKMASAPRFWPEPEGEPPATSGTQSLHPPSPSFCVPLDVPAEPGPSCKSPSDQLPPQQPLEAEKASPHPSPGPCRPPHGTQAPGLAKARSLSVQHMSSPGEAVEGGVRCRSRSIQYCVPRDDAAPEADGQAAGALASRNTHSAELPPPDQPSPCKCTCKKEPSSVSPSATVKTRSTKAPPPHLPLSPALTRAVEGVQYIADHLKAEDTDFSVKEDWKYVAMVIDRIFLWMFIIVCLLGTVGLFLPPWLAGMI
Chain of Sodium-dependent dopamine transporter (Q01959 whole entry): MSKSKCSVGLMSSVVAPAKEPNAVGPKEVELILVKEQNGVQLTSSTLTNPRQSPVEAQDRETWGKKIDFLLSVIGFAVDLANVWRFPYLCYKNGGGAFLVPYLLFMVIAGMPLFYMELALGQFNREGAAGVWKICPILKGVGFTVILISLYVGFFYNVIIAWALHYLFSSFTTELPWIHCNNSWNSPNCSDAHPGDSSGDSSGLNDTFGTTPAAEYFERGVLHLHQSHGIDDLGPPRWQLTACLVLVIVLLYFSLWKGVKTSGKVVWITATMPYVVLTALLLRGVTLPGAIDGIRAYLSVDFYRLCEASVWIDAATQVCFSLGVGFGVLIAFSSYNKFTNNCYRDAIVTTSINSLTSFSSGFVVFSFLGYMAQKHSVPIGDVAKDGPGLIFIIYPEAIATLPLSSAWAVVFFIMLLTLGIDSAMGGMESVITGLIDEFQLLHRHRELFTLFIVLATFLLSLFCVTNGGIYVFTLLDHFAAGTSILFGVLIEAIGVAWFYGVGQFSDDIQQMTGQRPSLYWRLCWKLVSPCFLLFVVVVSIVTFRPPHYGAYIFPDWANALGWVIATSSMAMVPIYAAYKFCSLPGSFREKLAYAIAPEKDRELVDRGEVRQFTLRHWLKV

With `CC/C(=C(\c1ccccc1)c1ccc(OCCN(C)C)cc1)c1ccccc1` [TAMOXIFEN], the AC50 in [1] was over 10 µM; in test [2], over 10 µM; in test [3], over 10 µM; in [4] it was over 10 µM; in test [5] it was 12.3 µM; in [6], over 30 µM. Also, the AC50 in test [7] was 2.9 µM; in [8], over 10 µM.

For the molecule `COc1ccc2c3c1O[C@H]1[C@@H](O)CC[C@H]4[C@@H](C2)N(C)CC[C@@]341` [DIHYDROCODEINE], the half-maximal activity concentration (AC50) in test [1], in test [2], in test [3], in [4] and in [7] was over 30 µM in each case.

As for `O=C1C(O)=C([C@H]2CC[C@H](c3ccc(Cl)cc3)CC2)C(=O)c2ccccc21` [ATOVAQUONE], the concentration at half-maximal activity (AC50) in [9], in test [1], in [10], in test [11], in [2] and in test [12] was over 30 µM each time. Also, the AC50 in test [3], in test [4], in [13], in [5], in [6] and in [7] was over 30 µM in each case. The molecule further showed an AC50 in test [8] of over 30 µM.

On to `Clc1ccccc1C(c1ccccc1)(c1ccccc1)n1ccnc1` [CLOTRIMAZOLE], for which the AC50 is over 10 µM in test [2]; over 10 µM in test [3]; over 10 µM in test [4]; 14.8 µM in test [5]; over 10 µM in test [6]; over 30 µM in [7]. The same molecule registered a concentration at half-maximal activity (AC50) in test [8] of over 10 µM.

As to `Cc1c(OCC(F)(F)F)ccnc1C[S+]([O-])c1nc2ccccc2[nH]1` (configuration not stated) [LANSOPRAZOLE], the AC50 in test [9] is over 30 µM; in [1] it was over 10 µM; in test [10] it was 9.67 µM; in test [11], 7.77 µM; in test [2], over 10 µM; in [12], over 30 µM. For the same molecule, the AC50 in [3] is over 10 µM; in test [4], over 10 µM; in test [13], over 30 µM; in test [5], over 10 µM; in test [7] it was over 10 µM; in test [8], over 10 µM.

For `C[C@H]1COc2c(C3(N)CC3)c(F)cc3c(=O)c(C(=O)O)cn1c23` [PAZUFLOXACIN], the AC50 in [9], in test [1], in test [10], in [11], in [2] and in test [12] was over 10 µM in each case. Moreover, the half-maximal activity concentration (AC50) in test [3] is over 10 µM; in test [4], over 10 µM; in [13] it was over 10 µM; in test [5] it was over 10 µM; in test [6], over 10 µM; in test [7], over 30 µM. This molecule registered a concentration at half-maximal activity (AC50) in test [8] of over 10 µM.

Regarding `CC(CC1c2ccccc2CCc2ccccc21)CN(C)C` (configuration not stated) [BUTRIPTYLINE], the half-maximal activity concentration (AC50) in [1] was over 30 µM; in test [2] it was over 30 µM; in test [4], over 30 µM; in [7], 1.7 µM.

Turning to `Cc1nnc2n1-c1ccc(Cl)cc1C(c1ccccc1Cl)=NC2` [TRIAZOLAM], the concentration at half-maximal activity (AC50) was over 30 µM in [9]; over 10 µM in [1]; over 30 µM in [10]; over 30 µM in test [11]; 0.0011 µM in [2]; over 30 µM in [12]. Moreover, the concentration at half-maximal activity (AC50) in test [3] was over 10 µM; in [4], over 10 µM; in [13], over 30 µM; in [5], over 30 µM; in [6], over 10 µM; in test [7] it was over 30 µM. Further, the AC50 in test [8] was over 10 µM.

`Cc1cc(C(C)(C)C)c(O)c(C)c1CC1=NCCN1` [OXYMETAZOLINE]: the AC50 in [9] is over 30 µM; in test [11] it was over 30 µM; in test [2] it was over 30 µM; in test [3] it was 0.0094 µM; in test [4] it was over 30 µM; in test [5] it was over 30 µM. The AC50 in test [7] is 20.1 µM; in test [8], over 30 µM.

In the case of `CC1(C)CCC(CN2CCN(c3ccc(C(=O)NS(=O)(=O)c4ccc(NCC5CCOCC5)c([N+](=O)[O-])c4)c(Oc4cnc5[nH]ccc5c4)c3)CC2)=C(c2ccc(Cl)cc2)C1` [VENETOCLAX], the half-maximal activity concentration (AC50) in [9] was over 30 µM; in test [11] it was 2.3 µM; in test [5] it was 22 µM; in test [7] it was over 30 µM.

As for `COc1cccc(C2(O)CCCCC2CN(C)C)c1` (configuration not stated) [TRAMADOL], the AC50 in test [9] was over 30 µM; in [1], over 10 µM; in [10], over 30 µM; in test [11] it was over 30 µM; in test [2] it was over 10 µM; in test [12] it was over 30 µM. For the same molecule, the concentration at half-maximal activity (AC50) in test [3] was over 10 µM; in test [4], over 10 µM; in test [13], over 30 µM; in test [5] it was over 10 µM; in [7], over 10 µM.

As to `Brc1c(NC2=NCCN2)ccc2nccnc12` [BRIMONIDINE], the AC50 in test [9] was over 30 µM; in [10] it was over 30 µM; in [11], over 30 µM; in test [2], over 30 µM; in [12], over 30 µM; in test [3] it was 5 µM. Moreover, the AC50 in [4], in test [13], in test [5], in test [6], in [7] and in test [8] was over 30 µM each time.

For the molecule `Nc1nc(Cl)nc2c1ncn2[C@H]1C[C@H](O)[C@@H](CO)O1` [CLADRIBINE], the AC50 in test [9], in test [1], in test [10], in test [11], in test [12] and in [3] was over 30 µM each time. Moreover, the AC50 in test [4], in [13], in test [5], in test [6], in [7] and in test [8] was over 30 µM each time.
